The numbers were not newly measured in patent US12379360B2, “Detection system for an electronic nose allowing a physicochemical classification of odours and electronic nose comprising such a system” (COMMISSARIAT À L'ÉNERGIE ATOMIQUE ET AUX ÉNERGIES …, priority 2019, dated 2025), which cites them from elsewhere.

The conditions of series [1]: n-octanol/water partition coefficient.
The conditions of series [2]: pure compound.
The conditions of series [3]: scale of R. M. Sweet and D. Eisenberg, reference [4].

The term logP denotes the decadic logarithm of the partition coefficient of the neutral form, usually between octanol and water. On to `NCCCCN` [DAB, 1,4-diaminobutane], for which, in series [1], the log partition coefficient (logP) is on record as −0.9. Also, the “n (refractive index)” value in series [2] is given as 1.457. For `NCCCCCN` [DAP, 1,5-diaminopentane], in series [1], the logP is given as −0.6. Also, in series [2], the “n (refractive index)” value is listed as 1.458. With `CSC` [DMS, dimethylsulphide], the logP in series [1] is on record as 2.7. Also, the “n (refractive index)” value in series [2] is 1.4487. `CCCSCCC` [DPS, dipropylsulphide]: in series [1], the logP is 0.9. The “n (refractive index)” value in series [2] was 1.435. Turning to `CCN(CC)CC` [TEA, triethylamine], the lipophilicity (logP) in series [1] is reported as 1.4. Moreover, the “n (refractive index)” value in series [2] was 1.401. With `CN(C)C` [TMA, trimethylamine], in series [1], the logP is recorded as 0.3. Moreover, in series [2], the “n (refractive index)” value was 1.3631. For `NC(=O)C[C@H](N)C(=O)O` [asparagine], the hydrophobicity index in series [3] is listed as −0.74. On to `CCCCCN` [n-PA, n-pentylamine], for which, in series [1], the logP was 1.5. The “n (refractive index)” value in series [2] is 1.411.

Regarding `O=C(O)[C@@H]1CCCN1` [proline], the hydrophobicity index in series [3] is given as 0.12.
